Molecular target: T1, 3-phosphoinositide-dependent protein kinase 1 [50-359] (Homo sapiens, UniProt O15530)
T1 construct: 50-359
T1 sequence (O15530 whole entry): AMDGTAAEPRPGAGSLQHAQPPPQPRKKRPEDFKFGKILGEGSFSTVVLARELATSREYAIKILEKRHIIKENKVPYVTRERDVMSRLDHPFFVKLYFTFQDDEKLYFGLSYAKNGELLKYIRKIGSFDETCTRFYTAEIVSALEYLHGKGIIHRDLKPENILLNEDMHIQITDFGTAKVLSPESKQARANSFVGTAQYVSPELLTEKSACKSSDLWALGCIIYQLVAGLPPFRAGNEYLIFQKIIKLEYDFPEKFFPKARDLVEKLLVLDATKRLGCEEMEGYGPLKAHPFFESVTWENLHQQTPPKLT
Experiment: Isothermal titration calorimetry
Conditions: pH 7.4
Experimental: For the titrations of PDK1 with adenosine, the protein and the compound were prepared in 50 mMTris-HCl (pH 7.4), 200 mM NaCl, 1 mM DTT and 1% v/v DMSO. For the titration of PDK1 with PS653 theprotein and the compound were prepared in 50 mM Tris-HCl (pH 7.4), 200 mM NaCl, 1 mM DTT and 5% v/vDMSO. […] The titrationof PDK1 with adenosine was performed at 25 C, and the titration of PDK1 with PS653 was made at 37 C. Rawcalorimetric data were corrected for heats of dilution. Binding stoichiometries, enthalpy values and Kd valueswere determined by fitting corrected data to

Kd: 1250 nM
Compound: O=C1c2ccccc2-c2n[nH]c3cccc1c23 [SP-600125]
